Reference: article PMC3206575 (The Journal of Cell Biology, 1999)
Numbering of substitutions follows the chain as printed. pKd: −log10 of the molar value.

How the values were obtained:
[1] = target: T1, DRal (Drosophila Ral), GST-DRal (Drosophila melanogaster, UniProt P48555, G20V); assay: [3H]GDP binding to GST fusion protein
T1 sequence (P48555 1-201 G20V): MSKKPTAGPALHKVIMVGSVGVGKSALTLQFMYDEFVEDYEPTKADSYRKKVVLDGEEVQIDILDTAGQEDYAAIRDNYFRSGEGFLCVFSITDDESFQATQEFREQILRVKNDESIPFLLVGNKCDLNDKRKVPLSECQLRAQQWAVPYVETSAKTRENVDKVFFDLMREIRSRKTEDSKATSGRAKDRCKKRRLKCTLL

[2] = target: T2, DRal (Drosophila Ral), GST-DRal (Drosophila melanogaster, UniProt P48555); assay: [3H]GDP binding to GST fusion protein
T2 sequence (P48555 1-201): T1 sequence (P48555 1-201 G20V) with V20G

[3] = target: T3, DRal (Drosophila Ral), GST-DRal (Drosophila melanogaster, UniProt P48555, S25N); assay: [3H]GDP binding to GST fusion protein
T3 sequence (P48555 1-201 S25N): T1 sequence (P48555 1-201 G20V) with V20G, S25N

[4] = target: T2, DRal (Drosophila Ral), GST-DRal; assay: […]GTPγS binding to GST fusion protein
[5] = target: T1, DRal (Drosophila Ral), GST-DRal; assay: […]GTPγS binding to GST fusion protein
[6] = target: T3, DRal (Drosophila Ral), GST-DRal; assay: […]GTPγS binding to GST fusion protein

pKd [1] | pKd [2] | pKd [3] | pKd [4] | pKd [5] | pKd [6] | SMILES
8.08 | 7.85 | 7.02 |  |  |  | Nc1nc2c(ncn2[C@@H]2O[C@H](COP(=O)(O)OP(=O)(O)O)[C@@H](O)[C@H]2O)c(=O)[nH]1 [GDP]
 |  |  | 7.51 | 7.42 | 6.39 | Nc1nc2c(ncn2[C@@H]2O[C@H](COP(=O)(O)OP(=O)(O)OP(O)(O)=S)[C@@H](O)[C@H]2O)c(=O)[nH]1 [GTPγS]
